The record followed here is US20240368209A1, “GEMCITABINE ANTICANCER DERIVATIVE AND ANTICANCER PHARMACEUTICAL USE” (ASCENTAWITS PHARMACEUTICALS, LTD., priority 2021, published 2024).

The term IC50 denotes the concentration needed to halve the response being measured.

Each structure is given as a SMILES string. Like-named read-outs stand apart in the source and are kept apart here.

The experiment relates to H460 non-small cell lung cancer human tumor cell line. As to the kind of experiment: In vitro human tumor cell line cytotoxicity (proliferation) assay on H460, CTG, with or without AST-3021. In kind it is cell-based. The following applies: for IC50: Homo sapiens. The method, then:
In vitro human tumor cell line cytotoxicity assay was used.
In vitro proliferation data on the H460 non-small cell lung cancer human tumor cell line (cell line which highly expresses AKR1C3) is reported below in the compound table.
IC50 values were obtained with the following steps:
Specifically, exponentially growing cells were seeded at a density of 2×10^3 cells/100 μL/well in a 96-well plate and incubated at 37° C. in 5% CO2, 95% air and 100% relative humidity for 24 hours. The test compound was administered alone: 24 hours after cell plating, the compound acted alone, 99 μL of growth medium per well was added, and 1 μL of the compound prepared at 200× was added, and the plate was shaken gently to ensure even mixing, then placed into an incubator of 37° C., 5% CO2. After further cultivation for 72 hours, the number of live cells was detected using CTG. The CTG detection method was as follows: the cell plate to be tested was placed at room temperature to equilibrate for 30 minutes, and 100 μL of medium per well was discarded. 25 μL of CTG reagent (CellTiter-Glo® kit) per well was added, and the plate was placed in a high-speed shaker to oscillate for 2 minutes, and placed at room temperature in the dark for 30 minutes. The chemiluminescence signal value was read using a multimode microplate reader, with a read time of 1000 ms.
Similarly, in order to further verify that the compounds were activated by human AKR1C3 (aldosterone reductase family 1 member C3), the effect of some of the compounds on the proliferation of H460 cancer cells was tested with pretreatment with a specific AKR1C3 enzyme inhibitor AST-3021 (3 μM). The detailed experimental procedure was as follows: 24 hours after cell plating, 98 μL of growth medium per well was added, and 1 μL of 200×compound AST-3021 was added to each well, and the plate was shaken gently to ensure even mixing, and then placed into an incubator; after 2 hours, 1 μL of the test compound prepared at 200× was added, and the plate was shaken gently to ensure even mixing and then laced into an incubator of 37° C., 5% CO2. The inhibitor used was compound 36, i.e.
in Flanagan et al., Bioorganic and Medicinal Chemistry (2014), page 962-977, and is referred to as AST-3021 in this invention. The values measured in this case are values corresponding to +AST-3021 IC50 (nM) in Table 1.
The value corresponding to +AST-3021 IC50 (nM) divided by the value corresponding to IC50 (nM) is the specific activation ratio. The relative magnitude of the specific activation ratio can be used to evaluate whether this compound is a cytotoxic compound activated by human AKR1C3 (aldosterone reductase family 1 member C3): when the specific activation ratio is less than 1, it is considered that the compound is not activated by human AKR1C3 (aldosterone reductase family 1 member C3); when the specific activation ratio is greater than 1, it is considered that the compound is activated by human AKR1C3 (aldosterone reductase family 1 member C3), and the higher the value, the higher the activation degree and the selectivity of AKR1C3.

[1] abbreviates: NCI-H460, compound alone, 72 hours, read-out: IC50.
Where [2] appears, read: NCI-H460, pretreatment with AKR1C3 inhibitor AST-3021 (3 μM), read-out: +AST-3021 IC50.

`CCNP(=O)(OCc1ccc([N+](=O)[O-])c(Oc2ccc(C(=O)N3CCCCC3)cc2)c1)OCC1OC(n2ccc(N)nc2=O)C(F)(F)C1O` (stereo not drawn) [Compound H13]: the “specific activation ratio (+AST-3021 IC50/IC50)” value (“specific activation ratio” below) was determined as 9.4. For the same compound, under setting [1], the IC50 was found to be 393 nM. In addition, the IC50 under setting [2] was 3680 nM.
On the same counts, the results for `CCNP(=O)(OCc1ccc([N+](=O)[O-])c(Oc2ccc(C(=O)N3CCC(C(F)(F)F)CC3)cc2)c1)OCC1OC(n2ccc(N)nc2=O)C(F)(F)C1O` (stereo not drawn) [Compound H14] are 1.9, 1770 nM and 3300 nM.
On the same counts, the results for `CCNP(=O)(OCc1ccc([N+](=O)[O-])c(Oc2cccc(C(=O)N3CCCCC3)c2)c1)OCC1OC(n2ccc(N)nc2=O)C(F)(F)C1O` (stereo not drawn) [Compound H15] are 5.0, 486 nM and 2420 nM.
On the same counts, the results for `CCNP(=O)(OCc1ccc([N+](=O)[O-])c(Oc2cccc(C(=O)N3CCC(C(F)(F)F)CC3)c2)c1)OCC1OC(n2ccc(N)nc2=O)C(F)(F)C1O` (stereo not drawn) [Compound H16] are 8.9, 377 nM and 3370 nM.
On to `Nc1ccn(C2OC(COP(=O)(NC3CCCCC3)OCc3ccc([N+](=O)[O-])c(Oc4ccc(-c5ccc(F)cc5)c(F)c4)c3)C(O)C2(F)F)c(=O)n1` (stereo not drawn) [Compound H17], for which the “specific activation ratio” value was 27.2. Besides, under setting [1], the IC50 came out at 397 nM. Under setting [2], the IC50 was found to be 10800 nM.
On the same counts, the results for `Nc1ccn(C2OC(COP(=O)(NC3CCCCC3)OCc3ccc([N+](=O)[O-])c(Oc4ccc(C(F)(F)F)cc4)c3)C(O)C2(F)F)c(=O)n1` (stereo not drawn) [Compound H18] are 3.7, 461 nM and 1700 nM.
On the same counts, the results for `CCNP(=O)(OCc1ccc([N+](=O)[O-])c(Oc2ccc3ncccc3c2)c1)OCC1OC(n2ccc(N)nc2=O)C(F)(F)C1O` (stereo not drawn) [Compound H19] are 3.4, 150 nM and 510 nM.
As for `CCNP(=O)(OCc1ccc([N+](=O)[O-])c(Oc2ccc3nc(C)sc3c2)c1)OCC1OC(n2ccc(N)nc2=O)C(F)(F)C1O` (stereo not drawn) [Compound H20], the “specific activation ratio” value was found to be 6.2. Moreover, the IC50 under setting [1] was 232 nM. Also, the IC50 under setting [2] was determined as 1430 nM.
On the same counts, the results for `CCNP(=O)(OCC1OC(n2ccc(N)nc2=O)C(F)(F)C1O)OC(C)c1ccc([N+](=O)[O-])c(Oc2ccc(-c3ccc(F)cc3)c(F)c2)c1` (stereo not drawn) [Compound H21] are 34.8, 127 nM and 4410 nM.
As to `CC(OP(=O)(NCCBr)OCC1OC(n2ccc(N)nc2=O)C(F)(F)C1O)c1ccc([N+](=O)[O-])c(Oc2ccc(-c3ccc(F)cc3)c(F)c2)c1` (stereo not drawn) [Compound H22], the “specific activation ratio” value worked out at 19.2. Besides, the IC50 under setting [1] came out at 124 nM. In addition, the IC50 under setting [2] came out at 2370 nM.
On the same counts, the results for `CNP(=O)(OCC1OC(n2ccc(N)nc2=O)C(F)(F)C1O)OC(C)c1ccc([N+](=O)[O-])c(Oc2ccc(C(F)(F)F)cc2)c1` (stereo not drawn) [Compound H23] are 29.8, 379 nM and 11300 nM.
Turning to `CCNP(=O)(OCC1OC(n2ccc(N)nc2=O)C(F)(F)C1O)OC(C)c1ccc([N+](=O)[O-])c(Oc2ccc(C(=O)N3CCCCC3)cc2)c1` (stereo not drawn) [Compound H24], the “specific activation ratio” value is 19.1. For the same compound, the IC50 under setting [1] is 1120 nM. Besides, the IC50 under setting [2] worked out at 21400 nM.
For the compound `CCNP(=O)(OCC1OC(n2ccc(N)nc2=O)C(F)(F)C1O)OC(C)c1ccc([N+](=O)[O-])c(Oc2cccc(C(=O)N3CCCCC3)c2)c1` (stereo not drawn) [Compound H25], the “specific activation ratio” value was 9.6. Also, the IC50 under setting [1] was 515 nM. Under setting [2], the IC50 is 4940 nM.
On the same counts, the results for `CCNP(=O)(OCc1ccc([N+](=O)[O-])c(Oc2ccc(-c3ccc(F)cn3)cc2)c1)OCC1OC(n2ccc(N)nc2=O)C(F)(F)C1O` (stereo not drawn) [Compound H28] are 20.4, 233 nM and 4760 nM.
Regarding `Nc1ccn(C2OC(COP(=O)(NC3CCCC3)OCc3ccc([N+](=O)[O-])c(Oc4ccc(-c5ccc(F)cc5)c(F)c4)c3)C(O)C2(F)F)c(=O)n1` (stereo not drawn) [Compound H29], the “specific activation ratio” value worked out at 47.17. Also, under setting [1], the IC50 worked out at 82.2 nM. The IC50 under setting [2] is 3880 nM.
Take `CC(C)NP(=O)(OCc1ccc([N+](=O)[O-])c(Oc2cccc(C(=O)N3CCCCC3)c2)c1)OCC1OC(n2ccc(N)nc2=O)C(F)(F)C1O` (stereo not drawn) [Compound H35]: the “specific activation ratio” value is 8.6. Besides, under setting [1], the IC50 worked out at 454 nM. Further, the IC50 under setting [2] stood at 3900 nM.
On the same counts, the results for `CC(C)NP(=O)(OCc1ccc([N+](=O)[O-])c(Oc2ccc(C(=O)N3CCCCC3)cc2)c1)OCC1OC(n2ccc(N)nc2=O)C(F)(F)C1O` (stereo not drawn) [Compound H36] are 3.1, 382 nM and 1170 nM.
On the same counts, the results for `CC(C)NP(=O)(OCc1ccc([N+](=O)[O-])c(Oc2ccc(-c3ccc(F)cc3)cc2)c1)OCC1OC(n2ccc(N)nc2=O)C(F)(F)C1O` (stereo not drawn) [Compound H38] are 507.6, 65.2 nM and 33100 nM.
On the same counts, the results for `CC(C)NP(=O)(OCc1ccc([N+](=O)[O-])c(Oc2ccc(-c3ccc(C(F)(F)F)cc3)cc2)c1)OCC1OC(n2ccc(N)nc2=O)C(F)(F)C1O` (stereo not drawn) [Compound H39] are 12.7, 2180 nM and 27700 nM.
Take `CC(C)NP(=O)(OCc1ccc([N+](=O)[O-])c(Oc2ccc(-c3ccc(Cl)cc3)cc2)c1)OCC1OC(n2ccc(N)nc2=O)C(F)(F)C1O` (stereo not drawn) [Compound H40]: the “specific activation ratio” value came out at 86.9. Further, under setting [1], the IC50 was 194 nM. Further, under setting [2], the IC50 was determined as 16900 nM.
As to `CC(C)NP(=O)(OCc1ccc([N+](=O)[O-])c(Oc2ccc(-c3ccc(Cl)cc3)c(F)c2)c1)OCC1OC(n2ccc(N)nc2=O)C(F)(F)C1O` (stereo not drawn) [Compound H42], the “specific activation ratio” value was 333.5. Also, the IC50 under setting [1] is 57.1 nM. Under setting [2], the IC50 came out at 19000 nM.
On the same counts, the results for `CC(C)NP(=O)(OCc1ccc([N+](=O)[O-])c(Oc2ccc(-c3ccccc3F)cc2)c1)OCC1OC(n2ccc(N)nc2=O)C(F)(F)C1O` (stereo not drawn) [Compound H43] are 257.8, 60 nM and 15500 nM.
On the same counts, the results for `CC(C)NP(=O)(OCc1ccc([N+](=O)[O-])c(Oc2ccc(-c3cccc(F)c3)cc2)c1)OCC1OC(n2ccc(N)nc2=O)C(F)(F)C1O` (stereo not drawn) [Compound H44] are 336.1, 51.3 nM and 17300 nM.
